In brackets after ≈: the same amount, converted by molar mass. Some results are limits rather than exact numbers.

Experimental findings from ChEMBL document CHEMBL1145670, “Additional New Maytansinoids from Trewia nudiflora: 10-Epitrewiasine and Nortrewiasine” (1983) are described below.

Holding throughout (type): functional
The subject of test [1] is KB. Briefly: Cytotoxicity against human KB cells. To be noted: for EC50: Homo sapiens, KB, read-out: ED50 (the source's name).
The subject of test [2] is P388. Briefly: In vivo antileukemic activity against mouse P388 cells at 4 mg/kg.
Test [3] concerns P388. As to the kind of experiment: In vivo antileukemic activity against mouse P388 cells at 16 mg/kg.
For test [4], the system named is P388. Briefly: In vivo antileukemic activity against mouse P388 cells at 32 mg/kg.
Test [5] deals with P388. As to the kind of experiment: In vivo antileukemic activity against mouse P388 cells at 8 mg/kg.

Consider `COc1cc2cc(c1Cl)N1CC(=O)C(C)(O)C(=O)N(C)C(C)C(=O)O[C@@H](CC1=O)[C@]1(C)O[C@H]1[C@H](C)[C@@H]1C[C@@](O)(NC(=O)O1)[C@H](OC)/C=C/C=C(\C)C2OC` (stereo partly drawn), for which the EC50 in test [1] was under 0.01 µg/mL. In addition, the T/C in test [2] is 153%.
For `COc1cc2cc(c1Cl)N1CCC(C)(O)C(=O)NC(C)C(=O)O[C@@H](CC1=O)[C@]1(C)O[C@H]1[C@H](C)[C@@H]1C[C@@](O)(NC(=O)O1)[C@H](OC)/C=C/C=C(\C)C2OC` (stereo partly drawn) [TREFLORINE], in test [1], the ED50 turned out to be 2.7 ×10⁻⁴ ug/ml. The T/C in test [3] came out at 157%.
On to `COc1cc2cc(c1Cl)N(C)C(=O)C[C@H](OC(=O)[C@H](C)N(C)C(=O)C(C)C)[C@]1(C)O[C@H]1[C@H](C)[C@@H]1C[C@@](O)(NC(=O)O1)[C@@H](OC)/C=C/C=C(\C)C2OC` (stereo partly drawn), for which, in test [1], the EC50 is under 0.001 µg/mL. The compound also yielded a T/C in test [4] of 131%.
As to `COc1cc2cc(c1Cl)N(C)C(=O)C[C@H](OC(=O)[C@H](C)NC(=O)C(C)C)[C@]1(C)O[C@H]1[C@H](C)[C@@H]1C[C@@](O)(NC(=O)O1)[C@H](OC)/C=C/C=C(\C)C2OC` (stereo partly drawn) [DEMETHYLTREWIASINE], in test [1], the EC50 amounted to 0.049 µg/mL (≈ 0.0666 µM). Besides, in test [5], the T/C is on record as 159%.
Consider `COc1cc2cc(c1Cl)N(C)C(=O)C[C@H](OC(=O)[C@H](C)N(C)C(=O)C(C)C)[C@]1(C)O[C@H]1[C@H](C)[C@@H]1C[C@@](O)(NC(=O)O1)[C@H](OC)/C=C/C=C(\C)C2OC` (stereo partly drawn) [TREWIASINE], for which the ED50 in test [1] is listed as 2 ×10⁻⁴ ug/ml. The same compound had a T/C in test [3] of 154%.
As for `COc1cc2cc(c1Cl)N(C)C(=O)C[C@H](OC(=O)[C@H](C)N(C)C(=O)C(C)C)[C@]1(C)O[C@H]1[C@H](C)[C@@H]1C[C@@](O)(NC(=O)O1)[C@H](OC)/C=C/C=C(\C)C2O` (stereo partly drawn) [COLUBRINOL], in test [1], the EC50 is under 0.001 µg/mL. Also, the T/C in test [4] is reported as 159%.
As to `C=C(C)C(=O)N(C)[C@@H](C)C(=O)O[C@H]1CC(=O)N(C)c2cc(cc(OC)c2Cl)C(OC)/C(C)=C/C=C/[C@@H](OC)[C@@]2(O)C[C@H](OC(=O)N2)[C@@H](C)[C@@H]2O[C@@]12C` (stereo partly drawn) [DEHYDROTREWIASINE], in test [1], the EC50 was under 0.01 µg/mL. Also, in test [5], the T/C was found to be 172%.
Compound `COc1cc2cc(c1Cl)N1CC(O)C(C)(O)C(=O)NC(C)C(=O)O[C@@H](CC1=O)[C@]1(C)O[C@H]1[C@H](C)[C@@H]1C[C@@](O)(NC(=O)O1)[C@H](OC)/C=C/C=C(\C)C2OC` (stereo partly drawn) [TRENUDINE] gave an ED50 in test [1] of 6.4 ×10⁻⁴ ug/ml. This compound returned a T/C in test [5] of 146%.
The compound `COc1cc2cc(c1Cl)NC(=O)C[C@H](OC(=O)[C@H](C)N(C)C(=O)C(C)C)[C@]1(C)O[C@H]1[C@H](C)[C@@H]1C[C@@](O)(NC(=O)O1)[C@H](OC)/C=C/C=C(\C)C2OC` (stereo partly drawn) [NORTREWIASINE] came in with an ED50 in test [1] of under 1 ×10⁻⁴ ug/ml. Besides, the T/C in test [3] was 155%.

The term T/C denotes the ratio of treated to control.
